Tested on: 186277-243-T-J2-PDC complex spheroid growth, % test/control
Experiment: Anticancer human tumor 186277-243-T-J2-PDC patient-derived colon adenocarcinoma cell line growth inhibition [Asc]
Details: for IC50: curve of first compound; for viability, T/C: stronger effect = lower value
In short: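 Complex spheroids combining tumor cells with HUVEC endothelial cells and human MSCs, at 37 degrees C, 5% CO2; agents tested alone or combined, half-log dilutions from at or near clinical Cmax, or 10 microM if Cmax unknown.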
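Also: spheroids exposed to agents for 7 days.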
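For viability, T/C in this document: 100% = DMSO vehicle control wells.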

## C=C(F)C(=O)N1CCN(c2nc(OCC3CCCN3C)nc3c2CCN(c2cccc4cccc(Cl)c24)C3)CC1CC#N (stereo not given) + CCN1C(C(=O)NC23CCC(C(=O)O)(CC2)CC3)C(c2cccc(Cl)c2F)C2(C(=O)Nc3cc(Cl)ccc32)C12CCCCC2
Second compound 0.03 µM
  IC50: 4.75 µM
Second compound 0.0949 µM
  IC50: 4.63 µM
Second compound 0.3 µM
  IC50: 4 µM
Second compound 0.949 µM
  IC50: 1.61 µM
Second compound 3 µM
  IC50: < 0.0316 µM
Second compound 0.03 µM, first compound 0.0316 µM
  viability, T/C: 123%
Second compound 0.03 µM, first compound 0.1 µM
  viability, T/C: 107%
Second compound 0.03 µM, first compound 0.316 µM
  viability, T/C: 109%
Second compound 0.03 µM, first compound 1 µM
  viability, T/C: 99.8%
Second compound 0.03 µM, first compound 3.16 µM
  viability, T/C: 79.5%
Second compound 0.03 µM, first compound 10 µM
  viability, T/C: 0.44%
Second compound 0.0949 µM, first compound 0.0316 µM
  viability, T/C: 92.7%
Second compound 0.0949 µM, first compound 0.1 µM
  viability, T/C: 92.5%
Second compound 0.0949 µM, first compound 0.316 µM
  viability, T/C: 103%
Second compound 0.0949 µM, first compound 1 µM
  viability, T/C: 88.6%
Second compound 0.0949 µM, first compound 3.16 µM
  viability, T/C: 75.2%
Second compound 0.0949 µM, first compound 10 µM
  viability, T/C: 0.22%
Second compound 0.3 µM, first compound 0.0316 µM
  viability, T/C: 76.3%
Second compound 0.3 µM, first compound 0.1 µM
  viability, T/C: 82.5%
Second compound 0.3 µM, first compound 0.316 µM
  viability, T/C: 86.1%
Second compound 0.3 µM, first compound 1 µM
  viability, T/C: 73.2%
Second compound 0.3 µM, first compound 3.16 µM
  viability, T/C: 63.7%
Second compound 0.3 µM, first compound 10 µM
  viability, T/C: 0.17%
Second compound 0.949 µM, first compound 0.0316 µM
  viability, T/C: 58.2%
Second compound 0.949 µM, first compound 0.1 µM
  viability, T/C: 57.5%
Second compound 0.949 µM, first compound 0.316 µM
  viability, T/C: 61.4%
Second compound 0.949 µM, first compound 1 µM
  viability, T/C: 64%
Second compound 0.949 µM, first compound 3.16 µM
  viability, T/C: 35.6%
Second compound 0.949 µM, first compound 10 µM
  viability, T/C: 0.22%
Second compound 3 µM, first compound 0.0316 µM
  viability, T/C: 38.4%
Second compound 3 µM, first compound 0.1 µM
  viability, T/C: 37.3%
Second compound 3 µM, first compound 0.316 µM
  viability, T/C: 38.8%
Second compound 3 µM, first compound 1 µM
  viability, T/C: 37%
Second compound 3 µM, first compound 3.16 µM
  viability, T/C: 23.6%
Second compound 3 µM, first compound 10 µM
  viability, T/C: 0.69%

## C=C(F)C(=O)N1CCN(c2nc(OCC3CCCN3C)nc3c2CCN(c2cccc4cccc(Cl)c24)C3)CC1CC#N (stereo not given) + Cc1c(S(C)(=O)=O)c(-c2cc(F)cc(N3CCN(c4ccc(NS(=O)(=O)c5ccc(NC(CCN6CCC(C(=O)OCCCP(=O)(O)O)CC6)CSc6ccccc6)c(S(=O)(=O)C(F)(F)F)c5)cc4)CC3)c2)c(-c2ccc(Cl)cc2)n1C(C)C
Second compound 0.1 µM
  IC50: 5.55 µM
Second compound 0.316 µM
  IC50: 4.4 µM
Second compound 1 µM
  IC50: 2.59 µM
Second compound 3.16 µM
  IC50: 2.18 µM
Second compound 10 µM
  IC50: 2.37 µM
Second compound 0.1 µM, first compound 0.0316 µM
  viability, T/C: 109%
Second compound 0.1 µM, first compound 0.1 µM
  viability, T/C: 111%
Second compound 0.1 µM, first compound 0.316 µM
  viability, T/C: 110%
Second compound 0.1 µM, first compound 1 µM
  viability, T/C: 110%
Second compound 0.1 µM, first compound 3.16 µM
  viability, T/C: 97.2%
Second compound 0.1 µM, first compound 10 µM
  viability, T/C: 0.54%
Second compound 0.316 µM, first compound 0.0316 µM
  viability, T/C: 106%
Second compound 0.316 µM, first compound 0.1 µM
  viability, T/C: 109%
Second compound 0.316 µM, first compound 0.316 µM
  viability, T/C: 108%
Second compound 0.316 µM, first compound 1 µM
  viability, T/C: 111%
Second compound 0.316 µM, first compound 3.16 µM
  viability, T/C: 70%
Second compound 0.316 µM, first compound 10 µM
  viability, T/C: 0.32%
Second compound 1 µM, first compound 0.0316 µM
  viability, T/C: 115%
Second compound 1 µM, first compound 0.1 µM
  viability, T/C: 119%
Second compound 1 µM, first compound 0.316 µM
  viability, T/C: 107%
Second compound 1 µM, first compound 1 µM
  viability, T/C: 124%
Second compound 1 µM, first compound 3.16 µM
  viability, T/C: 36.1%
Second compound 1 µM, first compound 10 µM
  viability, T/C: 0.51%
Second compound 3.16 µM, first compound 0.0316 µM
  viability, T/C: 105%
Second compound 3.16 µM, first compound 0.1 µM
  viability, T/C: 108%
Second compound 3.16 µM, first compound 0.316 µM
  viability, T/C: 112%
Second compound 3.16 µM, first compound 1 µM
  viability, T/C: 104%
Second compound 3.16 µM, first compound 3.16 µM
  viability, T/C: 24.2%
Second compound 3.16 µM, first compound 10 µM
  viability, T/C: 0.16%
Second compound 10 µM, first compound 0.0316 µM
  viability, T/C: 120%
Second compound 10 µM, first compound 0.1 µM
  viability, T/C: 106%
Second compound 10 µM, first compound 0.316 µM
  viability, T/C: 116%
Second compound 10 µM, first compound 1 µM
  viability, T/C: 107%
Second compound 10 µM, first compound 3.16 µM
  viability, T/C: 31.2%
Second compound 10 µM, first compound 10 µM
  viability, T/C: 0.25%
